Experimental data: publication PMC10582583, “The novel cyclophilin inhibitor C105SR reduces hepatic ischaemia–reperfusion injury via mitoprotection” (JHEP Reports, 2023)

Tests used:
[1] = system: AML-12 cells; assay: Caspase 3/7 activity assay, hypoxia/reoxygenation; type: cell-based, mouse; conditions: applied during hypoxia and reoxygenation; 4 h hypoxia, 2 h reoxygenation
Experimental: Necrosis is the major cause of cell death during hepatic IRI. However, mPTP opening also leads to apoptosis resulting from mitochondrial swelling, rupture of the outer mitochondrial membrane and subsequent release of cytochrome C into the cytosol.[20] We investigated whether C105SR and C110SR protected against mPTP opening-induced apoptotic cell death.
Mouse serum analysis. Blood was collected at 6 h of reperfusion. Alanine aminotransferase (ALT) and aspartate aminotransferase (AST) activities were measured on an automated analyzer in the Biochemistry Department of Henri Mondor Hospital.
Histological Analysis. Hematoxylin and eosin staining was performed on 4-μm thick formalin-fixed paraffin-embedded tissue sections. […] Necrosis areas were quantified with […]
TUNEL Assay. […] The number of TUNEL-positive cells were quantified using QuPath on slides scanned at x20 magnification using a virtual slide scanning system (Axio scan7/ZEN slidescan).
Caspase 3/7 activity assay. Caspase 3/7 activity was assessed using the commercially Caspase-Glo® 3/7 assay (Promega, Madison, Wisconsin) following the manufacturer’s instructions.
Briefly, Caspase-Glo® 3/7 Reagent was incubated with the cells and the caspase3/7 activity was determined by measuring luminescence with a luminometer (Berthold). Caspase3/7 activity was expressed as a percentage of the untreated control. […]

[2] = system: AML-12 cells; assay: mPTP opening, CoCl2-calcein AM fluorescence-quenching assay, hypoxia/reoxygenation; type: cell-based, mouse; conditions: for prevention of mPTP opening (loss of calcein fluorescence): 1 μM, 4 h hypoxia, 1 h reoxygenation
Experimental: We next evaluated the ability of compounds C105SR and C110SR to inhibit mPTP opening in cells. The hepatocyte cell line AML-12 was subjected to 4 h of hypoxia followed by 1 h of reoxygenation and mPTP opening was monitored using the CoCl2-calcein-acetoxymethyl ester (AM) fluorescence-quenching method.[19] Calcein-AM is a membrane permeable fluorophore which passively diffuses in all subcellular compartments including mitochondria. In the cell, the AM group of the fluorophore is cleaved by ubiquitous intracellular esterases, generating a hydrophilic product that is retained within the cell. The cells are then loaded with the divalent cobalt cation (Co^2+), which quenches calcein fluorescence in all subcellular compartments except the mitochondrial matrix, because the inner mitochondrial membrane is impermeable to cobalt. However, when mPTP is open, cobalt enters mitochondria and quenches mitochondrial calcein fluorescence. […]
(§1) Hypoxia/reoxygenation (H/R) in vitro model. AML-12 mouse hepatocyte line was obtained from American Type Culture Collection (ATCC) and maintained in DMEM/F12 culture medium at 37°C with 5% CO2. HepaRG human hepatocyte line was obtained from American Type Culture Collection (ATCC) and maintained in William’S E culture medium at 37°C with 5% CO2.When indicated, cells were incubated in phosphate buffered saline at 37°C in a hypoxic chamber filled with 94% N2, 1% O2, 5% CO2 for 4 h to mimic ischemic conditions. Then, cells were transferred to a CO2 incubator at 37°C in regular DMEM/F12 culture medium for 1 or 2 h under normoxic conditions (74% N2, 21% O2, 5% CO2). SMCypIs or vehicle (DMSO) were added during the hypoxia period, during the reoxygenation period, or during both. CsA and ALV were used as positive controls for hepatic protection against H/R injury.
Monitoring of mPTP opening. mPTP opening was monitored in AML-12 cells using the CoCl2-calcein AM fluorescence-quenching assay. Cells were loaded with 1 µM calcein-AM (green) for 20 min. Then, 1 mM CoCl2 was added and cells were incubated for another 10 min. Cells were washed and subjected to 4 h of hypoxia followed by 1 h of reoxygenation. Calcein fluorescence was measured using a spectrofluorimeter at excitation and emission wavelengths of 485 nm and 535 nm, respectively. Images were acquired using a standard inverted fluorescence microscope (Zeiss Axio, […]
media during the entire H/R period. Images shown are representative images of 12-18 images. […]
Optical density of purple formazan product was measured at 550 nm. […]

[3] = system: AML-12 cells; assay: Cell viability by MTT assay, hypoxia/reoxygenation; type: cell-based, mouse; conditions: 4 h hypoxia, 2 h reoxygenation; for cell viability (MTT): applied during hypoxia and reoxygenation
Experimental: As expected, cells subjected to hypoxia/reoxygenation were characterised by greater LDH release and reduced cell viability as compared to untreated controls (Fig. 4A and 4B). […]
Hypoxia/reoxygenation (H/R) in vitro model. […]
as §1, with “Collection” for “Hypoxia/reoxygenation (H/R) in vitro model. AML-12 mouse hepatocyte line was obtained from American Type Culture Collection (ATCC) and maintained in DMEM/F12 culture medium at 37°C with 5% CO2. HepaRG human hepatocyte line was obtained from American Type Culture Collection”, “injury. […]” for “injury.”
Cell viability assays. […]
dimethylthiazol-2-yl)-2,5-diphenyltetrazolium bromide (MTT) assay, cells were incubated with a solution of MTT (0.5 mg/mL) for 2 h at 37°C. The medium was then removed and 50 µL DMSO was added to each well. Optical density of purple formazan product was measured at 550 nm. Cell viability was expressed as a percentage of the untreated control.

[4] = system: isolated mouse liver mitochondria; assay: Calcium retention capacity (CRC) assay in isolated liver mitochondria; type: biochemical; conditions: for mitochondrial CRC vs maximum effect of CsA: 5 μM concentration and above (Fig. 2E); for mitochondrial CRC vs CsA and ALV: 0.5 and 1 μM (Fig. 2E); for maximal mitochondrial CRC, diastereoisomer vs racemic mixture: Fig. 2E; for mitochondrial CRC vs control: diastereoisomers at 100 μM (Fig. 2C); for EC50: isolated mouse liver mitochondria
[5] = target: CypD (Homo sapiens, UniProt P30405); assay: CypD PPIase activity, chymotrypsin-coupled assay; type: biochemical; conditions: for inhibition of CypD PPIase activity by diastereoisomers: 10 μM (Fig. 2A); for IC50: Table 2, enzyme assay
Sequence of CypD (P30405 30-207): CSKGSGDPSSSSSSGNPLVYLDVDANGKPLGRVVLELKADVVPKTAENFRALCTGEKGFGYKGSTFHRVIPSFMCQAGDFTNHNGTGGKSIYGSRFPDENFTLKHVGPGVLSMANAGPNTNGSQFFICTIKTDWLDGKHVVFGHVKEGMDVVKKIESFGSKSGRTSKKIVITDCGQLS

| Structure (SMILES) | protection against hypoxia/reoxygenation-induced cell apoptosis (caspase 3/7 activity) [1] | inhibition of mPTP opening ([2]; 0.5 μM) | prevention of mPTP opening (loss of calcein fluorescence) [2] | viability at 0.5 µM ([3]; Mus musculus, AML12, 0.5 μM, read-out: increase in cell viability) | cell viability (MTT) [3] | mitochondrial CRC vs maximum effect of CsA [4] | mitochondrial CRC vs CsA and ALV [4] | maximal mitochondrial CRC, diastereoisomer vs racemic mixture [4] | mitochondrial CRC vs control [4] | EC50 [4] | inhibition of CypD PPIase activity by diastereoisomers [5] | IC50 [5] | increase in cell viability ([3]; 0.5 μM) |
| --- | --- | --- | --- | --- | --- | --- | --- | --- | --- | --- | --- | --- | --- |
| COc1ccc(Br)cc1[C@H](NC(=O)NCc1ccc2c(c1)CCCN2)C(=O)N1CCC[C@@H]1c1cccc2ccsc12 [Compound C105SR, 1-((S)-2-((R)-2-(benzo[b]thiophen-7-yl)pyrrolidin-1-yl)-1-(5-bromo-2-methoxyphenyl)-2-oxoethyl)-3-((1,2,3,4-tetrahydroquinolin-6-yl)methyl)urea] | protected against hypoxia/reoxygenation-induced cell apoptosis | inhibited | substantially prevented | ~75% | increased cell viability | stronger effect than the maximum effect achieved by CsA | comparable to those of CsA and ALV | 595 ± 38 nmol Ca2+/mg of mitochondrial | greater than control mitochondrial CRC | 50 ± 20 nM | inhibited CypD PPIase activity | 5 ± 1 nM | – |
| COc1ccc(Br)cc1[C@H](NC(=O)NCc1ccc(N)cc1)C(=O)N1CCC[C@@H]1c1cccc2ccsc12 [Compound C110SR, 1-(4-aminobenzyl)-3-((S)-2-((R)-2-(benzo[b]thiophen-7-yl)pyrrolidin-1-yl)-1-(5-bromo-2-methoxyphenyl)-2-oxoethyl)urea] | protected against hypoxia/reoxygenation-induced cell apoptosis | – | substantially prevented | – | increased cell viability | stronger effect than the maximum effect achieved by CsA | comparable to those of CsA and ALV | 670 ± 52 nmol Ca2+/mg of mitochondrial | greater than control mitochondrial CRC | 140 ± 20 nM | inhibited CypD PPIase activity | 8 ± 2 nM | not effective |
